Assay results as given in patent US5801016A, “DNA fragment, recombinant vector containing the same and method for expressing foreign genes using the same” (Japan Tobacco Inc., priority 1995, dated 1998).

Experiments:
[1] = target: T1, rice (Oryza sativa) bran phospholipase D (PLD), purified fraction Mono Q 2nd-II (Oryza sativa subsp. japonica, UniProt Q43007); assay: PLD enzyme activity with phosphatidylcholine as substrate, quantifying the choline generated; type: biochemical; conditions: eluted solution Mono Q 2nd-II
T1 construct: bran of rice (Oryza sativa); from tissue; host or cells: rice (Oryza sativa) bran, variety KOSHIHIKARI, purified to Mono Q 2nd-II
T1 sequence (Q43007 47-812): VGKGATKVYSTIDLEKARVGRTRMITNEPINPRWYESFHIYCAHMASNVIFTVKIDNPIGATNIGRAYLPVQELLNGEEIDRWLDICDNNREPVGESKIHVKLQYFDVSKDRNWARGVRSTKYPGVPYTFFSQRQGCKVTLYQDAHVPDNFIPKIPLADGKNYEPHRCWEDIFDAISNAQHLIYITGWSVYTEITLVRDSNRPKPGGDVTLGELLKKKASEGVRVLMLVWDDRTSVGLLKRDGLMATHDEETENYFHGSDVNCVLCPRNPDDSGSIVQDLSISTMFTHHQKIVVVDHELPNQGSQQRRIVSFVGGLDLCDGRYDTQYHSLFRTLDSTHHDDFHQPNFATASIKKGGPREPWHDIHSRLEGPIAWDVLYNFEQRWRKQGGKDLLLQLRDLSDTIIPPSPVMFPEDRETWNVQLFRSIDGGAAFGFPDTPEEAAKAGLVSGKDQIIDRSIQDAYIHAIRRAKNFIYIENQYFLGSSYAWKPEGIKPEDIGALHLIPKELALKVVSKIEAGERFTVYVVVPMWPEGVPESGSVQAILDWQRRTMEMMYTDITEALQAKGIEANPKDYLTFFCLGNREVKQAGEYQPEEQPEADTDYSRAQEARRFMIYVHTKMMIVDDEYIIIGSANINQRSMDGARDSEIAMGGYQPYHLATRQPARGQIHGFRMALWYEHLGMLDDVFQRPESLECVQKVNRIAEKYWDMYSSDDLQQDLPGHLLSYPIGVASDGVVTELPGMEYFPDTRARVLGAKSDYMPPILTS
Procedure: (§1) For purification, a reference (Takano et al., Journal of Japan Food Industry Association, 34, 8-13 (1987) was referred. The enzyme activity was measured by employing phosphatidylcholine as a substrate and quantifying the choline generated by the enzyme reaction (Imamura et al., J. Biochem. 83, 677-680 (1978)). It should be noted, however, the enzyme reaction was stopped by heat treatment at 95° C. for 5 minutes.
(§2) Properties of the enzymes contained in the two fractions were determined. The buffer solutions used for the measurement of the optimum pH were sodium acetate (pH 4-6), MES-NaOH (pH 5.5-7.0) and Tris-HCl (pH 7-9), all of which have a concentration of 100 mM in all of the buffer solutions. The pH stability means the pH range in which decrease in the enzyme activity is not observed after leaving the enzyme at the respective pH at 25° C. for 30 minutes. The temperature stability was measured by measuring the remaining activity after leaving the enzyme to stand at 4° C., 25° C., 37° C. or 50° C. for 30 minutes. The substrate specificity was measured at a substrate concentration of 5 mM and expressed in terms of the relative activity taking the enzyme activity to phosphatidylcholine as 100.

[2] = target: T2, rice (Oryza sativa) bran phospholipase D (PLD), purified fraction Mono Q 2nd-I (Oryza sativa subsp. japonica, UniProt Q43007); assay: as above; type: biochemical; conditions: eluted solution Mono Q 2nd-I
T2 construct: bran of rice (Oryza sativa); from tissue; host or cells: rice (Oryza sativa) bran, variety KOSHIHIKARI, purified to Mono Q 2nd-I
T2 sequence (Q43007 47-812): T1 sequence (Q43007 47-812)
Procedure: as §1, §2

Question: With phosphatidylcholine as the substance, how does the Km [1] read?
Answer: 290 µM

Question: And the Km [2]?
Answer: 290 µM
